The target of test [1] is Acetylcholinesterase (Electrophorus electricus) (UniProt O42275). In words: Inhibition of electric eel AChE at 100 ug/ml preincubated for 15 mins followed by addition of acetylthiocholine iodide as substrate measured after 30 mins by Ellman's microplate assay.
Test [2] is described as follows: Selectivity ratio, ratio of IC50 for electric eel AChE to equine serum BChE.
The target in test [3] is Cholinesterase (Equus caballus) (UniProt P81908). The test is described as follows: Inhibition of equine serum BChE at 100 ug/ml preincubated for 15 mins followed by addition of S-butyrylthiocholine chloride as substrate measured after 30 mins by Ellman's microplate assay.
Test [4] deals with T1, Cholinesterase (Equus caballus, UniProt P81908). In words: Inhibition of equine serum BChE preincubated for 15 mins followed by addition of S-butyrylthiocholine chloride as substrate measured after 30 mins by Ellman's microplate assay.
Test [5] can be described thus: Selectivity ratio, ratio of IC50 for equine serum BChE to electric eel AChE.
Test [6] addresses Acetylcholinesterase (Electrophorus electricus, UniProt O42275). In words: Inhibition of electric eel AChE preincubated for 15 mins followed by addition of acetylthiocholine iodide as substrate measured after 30 mins by Ellman's microplate assay.
In test [7] the target is T1, Cholinesterase. The test is described as follows: Mixed-type inhibition of equine serum BChE preincubated for 15 mins followed by addition of S-butyrylthiocholine chloride as substrate measured after 30 mins by Lineweaver-Burk plot analysis.

T1 sequence (P81908 whole entry): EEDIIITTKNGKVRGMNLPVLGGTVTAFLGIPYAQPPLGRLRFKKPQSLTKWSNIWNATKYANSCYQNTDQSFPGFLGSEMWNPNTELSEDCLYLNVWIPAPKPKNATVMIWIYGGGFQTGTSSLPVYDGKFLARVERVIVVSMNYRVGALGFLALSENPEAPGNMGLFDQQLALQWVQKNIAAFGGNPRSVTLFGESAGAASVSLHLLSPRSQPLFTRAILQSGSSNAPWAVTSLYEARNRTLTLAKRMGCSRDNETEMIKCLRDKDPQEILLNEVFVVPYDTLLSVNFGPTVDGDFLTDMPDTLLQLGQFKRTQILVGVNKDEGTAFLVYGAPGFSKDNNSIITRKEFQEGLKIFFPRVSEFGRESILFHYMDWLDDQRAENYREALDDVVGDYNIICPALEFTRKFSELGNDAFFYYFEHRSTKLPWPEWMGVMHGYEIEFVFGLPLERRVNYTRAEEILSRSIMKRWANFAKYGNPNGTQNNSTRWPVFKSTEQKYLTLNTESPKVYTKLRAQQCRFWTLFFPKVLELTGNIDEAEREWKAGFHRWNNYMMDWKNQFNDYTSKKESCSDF
Cholinesterase (Equus caballus), sequence (P81908 whole entry): as above
Acetylcholinesterase, sequence (O42275 whole entry): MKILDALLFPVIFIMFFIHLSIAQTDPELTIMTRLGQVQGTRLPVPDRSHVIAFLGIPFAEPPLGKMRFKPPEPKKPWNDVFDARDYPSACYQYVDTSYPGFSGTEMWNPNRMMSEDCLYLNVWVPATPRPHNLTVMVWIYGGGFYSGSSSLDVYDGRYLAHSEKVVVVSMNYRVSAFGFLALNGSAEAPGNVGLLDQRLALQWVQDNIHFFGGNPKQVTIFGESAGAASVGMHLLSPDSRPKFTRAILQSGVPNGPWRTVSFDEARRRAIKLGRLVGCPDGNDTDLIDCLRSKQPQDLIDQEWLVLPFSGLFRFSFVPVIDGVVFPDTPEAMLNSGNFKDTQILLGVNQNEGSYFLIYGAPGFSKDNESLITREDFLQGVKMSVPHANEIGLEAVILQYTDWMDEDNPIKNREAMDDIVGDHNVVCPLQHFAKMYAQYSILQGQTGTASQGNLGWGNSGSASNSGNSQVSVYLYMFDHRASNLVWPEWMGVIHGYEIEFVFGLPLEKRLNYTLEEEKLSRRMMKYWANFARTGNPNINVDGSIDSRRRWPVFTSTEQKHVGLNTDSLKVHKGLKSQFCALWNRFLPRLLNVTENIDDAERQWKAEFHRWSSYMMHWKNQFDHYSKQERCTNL
Acetylcholinesterase (Electrophorus electricus), sequence (O42275 24-633 limits assumed): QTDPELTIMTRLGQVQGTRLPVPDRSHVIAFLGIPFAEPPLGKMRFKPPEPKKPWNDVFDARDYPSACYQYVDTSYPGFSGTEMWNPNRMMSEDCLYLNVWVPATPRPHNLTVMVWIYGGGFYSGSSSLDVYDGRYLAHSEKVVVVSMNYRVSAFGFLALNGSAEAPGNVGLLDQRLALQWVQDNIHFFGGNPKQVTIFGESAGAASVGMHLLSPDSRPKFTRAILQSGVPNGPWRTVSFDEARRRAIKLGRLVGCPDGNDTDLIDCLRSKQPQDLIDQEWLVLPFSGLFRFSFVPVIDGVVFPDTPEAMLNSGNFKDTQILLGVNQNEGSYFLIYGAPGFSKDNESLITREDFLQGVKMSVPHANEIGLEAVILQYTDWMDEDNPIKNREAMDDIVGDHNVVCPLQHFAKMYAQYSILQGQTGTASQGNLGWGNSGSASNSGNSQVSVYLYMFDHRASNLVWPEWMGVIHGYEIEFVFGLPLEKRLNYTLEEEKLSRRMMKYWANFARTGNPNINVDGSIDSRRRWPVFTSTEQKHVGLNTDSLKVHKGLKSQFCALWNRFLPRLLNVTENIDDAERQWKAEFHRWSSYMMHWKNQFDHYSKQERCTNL

Take `COc1ccc(C2=C(c3ccc(O)cc3)CN3CCC[C@@H]3C2)cc1OC`: the inhibition in test [1] was found to be 51.4%; in test [3] it was 59.4%. Moreover, the Ratio IC50 came to 1.21 in test [2] and 0.83 in test [5]. Further, the IC50 in test [4] was 167 µM; in test [6] it was 202 µM.

As for `COc1cc2c3c(c1O)C1(CCC(O)CC1)CC3NCC2` (stereo not given), the inhibition in test [1] amounted to 27.9%; in test [3], 52.1%. The compound further registered an IC50 in test [4] of 288 µM.

On to `COc1cc2c(cc1O)CCN(C)C2Cc1ccc(O)cc1` (stereo not given), for which the inhibition in test [1] is 14.9%; in test [3] it was 37.3%.

As to `COc1cc2c3c(c1OC)-c1cc4c(cc1C[C@@H]3NCC2)OCO4`, the inhibition stood at 50.4% in test [1] and 75.8% in test [3]. The Ratio IC50 in test [2] came out at 2.18; in test [5] it was 0.46. The values for the IC50 in test [4] and in test [6] were 94.4 µM and 206 µM, respectively.

In the case of `COc1cc2c(cc1O)C[C@H]1c3c(cc(OC)c(OC)c3-2)CCN1C`, the inhibition was determined as 38.8% in test [1] and 51% in test [3]. This compound returned an IC50 in test [4] of 219 µM.

For the compound `COc1ccc(C[C@H]2c3cc(O)c(OC)cc3CCN2C)cc1O` [(S)-RETICULINE], the inhibition stood at 53% in test [1] and 84.1% in test [3]. Moreover, the values for the Ratio IC50 in test [2] and in test [5] were 4.63 and 0.22, respectively. Further, the figures for the IC50 in test [4] and in test [6] were 65 µM and 301 µM, respectively.

As for `COc1cc(CCN(C)C)c2ccc3ccccc3c2c1OC`, the inhibition turned out to be 2.06% in test [1] and 83.9% in test [3]. This compound also registered an IC50 in test [4] of 19.3 µM.

As to `COc1c(OC)c(OC)c2c(ccc3ccccc32)c1CCN(C)C`, the values for the inhibition in test [1] and in test [3] were 31.6% and 95.2%, respectively. In test [4], this compound came in with an IC50 of 3.95 µM. For the same compound, in test [7], the affinity corresponds to a Ki of 6.72 µM.

On to `COc1cc2c(cc1O)C[C@@H]1NCCc3cc(OC)c(OC)c-2c31`, for which the inhibition was 17.5% in test [1] and 22.6% in test [3].

The values above are taken from ChEMBL document CHEMBL3826956, “Cholinesterase inhibitory activity of isoquinoline alkaloids from three Cryptocarya species (Lauraceae)” (Bioorg Med Chem, 2016).
